The text below walks through data of publication PMC8001000, “Pitfalls in the Immunochemical Determination of β-Lactam Antibiotics in Water” (Antibiotics, 2021).

Data set [1] concerns monoclonal mouse anti-AMX antibody A1463 (clone 1.BB.832). The data set can be described thus: indirect competitive ELISA (calibration curves of β-lactams and hydrolysis products). The format is binding. The conditions noted are these: for reduction of LOD by hydrolysis: after hydrolysis; for IC50: read-out: IC50 (ELISA calibration curve). The method, then: For the preparation of standards (calibrators), stock solutions of each compound with a mass concentration of approximately 1 g/L were prepared gravimetrically by weighing the respective compound and amount of solvent. Solvents for these stock solutions were ethanol for amoxicillin piperazine-2,5-dione and 3-(4-hydroxyphenyl)pyrazin-2-ol, or Milli-Q water for all other compounds. Standard solutions of each compound were prepared volumetrically by serial dilution of the respective stock solution in Milli-Q water. All standards and stock solutions were stored at 4 °C in the amber glass vials.
(§1) For hydrolysis, standards and samples were diluted in 0.1 M sodium hydroxide solution (1:1) the day before analysis in the assay, i.e., the day of coating (see below), and stored at 4 °C until the next day. Samples for reference analysis without hydrolysis were diluted in Milli-Q water (1:1) prior to analysis.
Each cavity of a 96-well microplate was coated with AMX-HSA (or alternatively AMX-BSA) in PBS (47.619 ng/L, 200 µL/well) and incubated for 18 h at RT with shaking at 750 rpm. Afterwards the plate was washed three times with washing buffer (1:60 dilution of washing buffer 60x in Milli-Q water) and the cavities were blocked with 0.1% (w/v) casein in PBS (200 µL/well) for 1 h at 750 rpm and RT. After repeated washing, standards/samples (100 µL/well) and primary antibody (dilution 1:20,000 in Tris for preliminary and cross-reactivity studies, in sample buffer pH 7.6 for sample analysis or in sample buffer pH 8.5 for reference analysis for degree of hydrolysis; 100 µL/well) were added and incubated for 1 h at 750 rpm and RT. Following another washing step, the plate was incubated with secondary antibody (95.238 ng/L, 200 µL/well) for 1 h at 750 rpm at RT. After final washing, cavities were filled with freshly prepared substrate solution (22 mL citrate buffer, 8.5 µL hydrogen peroxide solution, 550 µL TMB stock solution; 200 µL/well) and shaken for 10 min (preliminary and cross-reactivity studies) or 20 min (sample analysis, degree of hydrolysis) at 750 rpm for blue color development. […] Optical density was read at RT at a wavelength of 450 nm with reference at 620 nm. Data points were plotted in Origin® 2019 (OriginLab, Northampton, MA, USA), calibration curves were obtained by fitting a four-parameter logistic function to the measured data points and sample concentrations were determined by correlating concentration values of hydrolyzed standards with O.D. values of hydrolyzed and non-hydrolyzed samples. Each standard (8 per plate) and sample (24 per plate) was analyzed in triplicate with random distribution across the plate to reduce edge effects.

Data set [2] can be described thus: hydrolysis of AMX in standard solutions and water samples, followed by ELISA. In kind it is physicochemical. The conditions noted are these: for reaction time after which no further shift in the calibration curve was observable (hydrolysis): 0.1 M NaOH. The method, then: While developing and optimizing an indirect competitive ELISA for the determination of AMX, we observed a significant shift in the calibration curves obtained for differently aged standard solutions (calibrators) of AMX in water. […] This shift reached its end point after two months of storage at 4 °C and could be ascribed to hydrolysis of the parent drug by hydrolyzing standard solutions of AMX in 0.1 M NaOH, which yielded a similar calibration curve in the ELISA (see Figure 2).
In order to examine the degree of hydrolysis of AMX in these samples, a parallel analysis in the ELISA without pretreatment with 0.1 M NaOH was carried out and concentration values determined with and without hydrolysis were compared. […] Because of the antibody’s lower affinity towards unhydrolyzed AMX (higher IC50), higher O.D. values are found which correlate with lower concentration values in the calibration curve. This was the case for all of the tested mineral waters after 20 h. Contrarily, for tap water samples (P1–P4) the analysis without hydrolysis led to higher concentration values than the assay featuring hydrolysis, implying that hydrolysis of AMX had already occurred in these samples. […] The reason for that may lie in general properties of tap water containing particles or metal ions, e.g., Cu^2+, which can serve as catalysts for AMX hydrolysis. Furthermore, the storage of the water samples might have an effect as tap water for sample preparation was collected and stored in a glass bottle whereas mineral water samples were taken directly from plastic bottles. Anyhow, the influence of the pH value of the water can be ruled out since the values were within a range from 6.6 to 8.0 and no general trend was observable. The same holds true for ionic constituents (see Supplementary Table S1).
as §1

Setting [3] is: non-hydrolyzed standard solutions (freshly prepared / before hydrolysis; pure compounds).
The mark [4] stands for this setting: standards after alkaline hydrolysis (0.1 M NaOH, 24 h at 4 °C).

Where two headings read alike, the source gives them in different places.

As for `CC1(C)S[C@@H]2[C@H](NC(=O)Cc3ccccc3)C(=O)N2[C@H]1C(=O)O` [PenG, penicillin G], in data set [1], the “reduction of LOD by hydrolysis” value stood at 85%. Besides, the IC50 in data set [1] (setting [3]) was found to be 700 ± 70 nM; in data set [1] (setting [4]) it was 11.1 ± 1.7 nM.
For `CC1(C)S[C@@H]2[C@H](NC(=O)[C@H](N)c3ccccc3)C(=O)N2[C@H]1C(=O)O` [AMP, ampicillin], the IC50 in data set [1] (setting [3]) came out at 1350 ± 130 nM; in data set [1] (setting [4]), 36.2 ± 3.7 nM.
Regarding `CC1(C)S[C@@H]2[C@H](NC(=O)COc3ccccc3)C(=O)N2[C@H]1C(=O)O` [PenV, penicillin V], in data set [1], the “reduction of LOD by hydrolysis” value was 85%. Moreover, the IC50 in data set [1] (setting [3]) amounted to 702 ± 66 nM; in data set [1] (setting [4]), 11.6 ± 2.5 nM.
For the compound `CC1(C)SC(C2NC(=O)C(c3ccc(O)cc3)NC2=O)NC1C(=O)O` (centres unmarked) [HP2, amoxicillin piperazine-2,5-dione], in data set [1] (setting [3]), the IC50 was 28700 nM.
In the case of `CC1(C)S[C@@H]2[C@H](NC(=O)C(C(=O)O)c3ccccc3)C(=O)N2[C@H]1C(=O)O` (some centres unmarked) [CRB, carbenicillin], the IC50 in data set [1] (setting [3]) turned out to be 11 ± 0.4 nM; in data set [1] (setting [4]) it was 3.8 ± 0.5 nM.
On to `CC1(C)S[C@@H]2[C@H](NC(=O)[C@H](N)c3ccc(O)cc3)C(=O)N2[C@H]1C(=O)O` [AMX, amoxicillin], for which the IC50 stood at 1470 ± 120 nM in data set [1] (setting [3]), 52.2 ± 4.4 nM in data set [1] (standard solutions aged for 2 months at 4 °C in water) and 38.1 ± 3.6 nM in data set [1] (setting [4]). In addition, the “reaction time after which no further shift in the calibration curve was observable (hydrolysis)” value in data set [2] (pH 12.5, 4 °C) amounted to 18 h; in data set [2] (pH 12.5, RT) it was 3 h. Moreover, the “rate of hydrolysis in drinking water samples” value in data set [2] (spiked tap water vs bottled mineral water, after 20 h) is recorded as “much faster in tap water than in bottled mineral water”. In addition, in data set [2] (standard solutions in water, storage at 4 °C), the “storage time until shift of calibration curve reached its end point (hydrolysis)” value is “two”.
Consider `CC1(C)SC(C(NC(=O)[C@H](N)c2ccc(O)cc2)C(=O)O)NC1C(=O)O` (some centres unmarked) [HP1, amoxicilloic acid], for which the “fold higher affinity of the antibody than to the parent drug AMX” value in data set [1] (HP1 vs AMX) is “approximately 200 fold”. In data set [1] (setting [3]), the IC50 was 7.48 ± 0.58 nM.
